Assay results published in patent US20250017846A1, “TOPICAL ANALGESICS” (THE REGENTS OF THE UNIVERSITY OF CALIFORNIA, priority 2023, published 2025).

Columns and labels:
Format in all cases: in vivo, rat
[1] = system: carrageenan-induced hyperalgesia in rats; assay: Carrageenan-induced hyperalgesia, mechanical nociceptive threshold after topical administration; conditions: male rats; carrageenan i.d.; 30 min later topical indomethacin 1 μg/μl with protamine 2 μg/μl, 30 μL; P<0.0001
Procedure: Male rats were treated with carrageenan (0.1% in 1 μg/5 μL) intradermally (i.d.), into the dorsum of the hind paw. Thirty minutes after the carrageenan administration, when hyperalgesia was established, animals received indomethacin combined with protamine or protamine alone, each in a volume of 30 μL, topically on the dorsum of one hind paw, at the site of the i.d. injection. Protamine was used at a concentration of 2 μg/μl and indomethacin was used at a concentration of 1 μg/μl. Mechanical nociceptive threshold was evaluated before carrageenan administration, and again 30 and 90 minutes after. […] Two-way repeated measures ANOVA, F(2.14)=40.46, P<0.0001. Bonferroni's multiple comparison post-hoc test. Data shown as mean±SEM; n=3 paws, per group.

[2] = system: PGE2 hyperalgesia in rats; assay: PGE2-induced hyperalgesia, mechanical nociceptive threshold after topical administration; conditions: male rats; PGE2 100 ng/5 μL i.d.; 10 min later topical morphine 0.1 μg/μl with protamine 2 μg/μl, 30 μL; 30 and 60 min; P=0.0366
Procedure: Male rats received PGE2 (100 ng/5 μL, intradermally, i.d.), on the dorsum of the hind paw followed, 10 minutes later, by morphine combined with protamine or protamine alone (dissolved in distillated water-dH20) or morphine (using saline as a vehicle), each in a volume of 30 μL, was administered topically on the dorsum of one hind paw, at the site of the i.d. PGE2 injection. Protamine was used at a concentration of 2 μg/μl and morphine was used at a concentration of 0.1 μg/μl. Mechanical nociceptive threshold was evaluated before intradermal PGE2 and again 30 and 60 min after topical administration. […] Two-way repeated measures ANOVA, F(2.8)=4.25, *P=0.0366. Bonferroni's multiple comparison post-hoc test. Data shown as mean±SEM; n=3 paws, per group.

[3] = system: rats with chemotherapy-induced painful peripheral neuropathy (CIPN); assay: Oxaliplatin-induced hyperalgesia (CIPN), mechanical nociceptive threshold after topical administration; conditions: oxaliplatin 2 mg/kg i.v. day 0, day 14 topical morphine 0.1 μg/μl with protamine 2 μg/μl, 30 μL on dorsum of hind paw, 30 and 60 min, P<0.0001
Procedure: Female rats received oxaliplatin (2 mg/kg, i.v.) on day 0. On day 14, at which time oxaliplatin-induced hyperalgesia was established, morphine combined with protamine or protamine alone (dissolved in distillated water-dH20) or morphine (using saline as a vehicle), each in a volume of 30 μL, was administered topically on the dorsum of one hind paw, at the site of nociceptive threshold testing. Protamine was used at a concentration of 2 μg/μl and morphine was used at a concentration of 0.1 μg/μl. Mechanical nociceptive threshold was evaluated before and 14 days after oxaliplatin administration, and again 30 and 60 minutes after topical drug administration. […] Two-way repeated measures ANOVA, F(6.18)=26.85, P<0.0001. Bonferroni's multiple comparison post-hoc test. n=3 per group.
Male rats received oxaliplatin (2 mg/kg, i.v.) on day 0. On day 14, at which time oxaliplatin-induced hyperalgesia was established, morphine combined with protamine or protamine alone, each in a volume of 30 μL, was administered topically on the dorsum of one hind paw, at the site of nociceptive threshold testing. Protamine was used at a concentration of 2 μg/μl and morphine was used at a concentration of 0.1 μg/μl. Mechanical nociceptive threshold was evaluated before and 14 days after oxaliplatin administration, and again 30 and 60 minutes after topical administration. […]

Structure (SMILES): COc1ccc2c(c1)c(CC(=O)O)c(C)n2C(=O)c1ccc(Cl)cc1 [indomethacin]
- effect on carrageenan-induced hyperalgesia (mechanical nociceptive threshold) [1]: attenuated carrageenan-induced hyperalgesia

Structure (SMILES): CN1CC[C@]23c4c5ccc(O)c4O[C@H]2[C@@H](O)C=C[C@H]3[C@H]1C5 [morphine]
- effect on PGE2-hyperalgesia (mechanical nociceptive threshold) [2]: significant attenuation of PGE2-hyperalgesia
- effect on oxaliplatin-induced hyperalgesia (mechanical nociceptive threshold) ([3]; female rats): attenuated oxaliplatin-induced hyperalgesia
- effect on oxaliplatin-induced hyperalgesia (mechanical nociceptive threshold) ([3]; male rats): attenuated oxaliplatin-induced hyperalgesia
